Data reported in patent US9745283B2, “Uracil derivatives as AXL and c-MET kinase inhibitors” (priority 2011, dated 2017).

Columns and labels:
[1] = target: recombinant human baculovirus-expressed AXL (Homo sapiens (Human), UniProt P30530); assay: AXL Kinase Assay (HTRF KinEASE); type: biochemical; details: average of two or more determinations
[2] = target: recombinant human baculovirus-expressed cMET (Homo sapiens (Human), UniProt P08581); assay: C-MET Kinase Assay (HTRF KinEASE); type: biochemical; details: average of two or more determinations; read-out: c-MET IC50
Method in brief: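 HTRF KinEASE format with recombinant human baculovirus-expressed cMET at 8 ng/mL, biotinylated peptide at 0.1 μM and ATP at 0.02 μM. IC50 came from percent control activity versus log concentration, fitted by nonlinear regression to a variable-slope sigmoidal equation with bottom fixed at 0 and top at 100.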

IC50 [1] | IC50 [2] | Compound
< 10 nM | 10 to 100 nM | Cn1cc(C(=O)Nc2ccc(Oc3ccnc4cc5c(cc34)OCO5)c(F)c2)c(=O)n(-c2ccc(F)cc2)c1=O [Example 131, 3-(4-Fluoro-phenyl)-1-methyl-2,4-dioxo-1,2,3,4-tetrahydro-pyrimidine-5-carboxylic acid [4-([1,3]dioxolo[4,5-g]quinolin-8-yloxy)-3-fluoro-phenyl]-amide]
< 10 nM | < 10 nM | CCn1cc(C(=O)Nc2ccc(Oc3ccnc4cc(OC)c(OC)cc34)cc2OC)c(=O)n(-c2ccc(F)cc2)c1=O [Example 143, 1-Ethyl-3-(4-fluorophenyl)-2,4-dioxo-1,2,3,4-tetrahydropyrimidine-5-carboxylic acid [4-(6,7-dimethoxy-quinolin-4-yloxy)-2-methoxyphenyl]-amide]
< 10 nM | 10 to 100 nM | COc1cc(Oc2ccnc3cc(OC)c(OC)cc23)ccc1NC(=O)c1cn(C)c(=O)n(-c2ccc(F)cc2)c1=O [Example 144, 1-Methyl-3-(4-fluoro-phenyl)-2,4-dioxo-1,2,3,4-tetrahydro-pyrimidine-5-carboxylic acid [4-(6,7-dimethoxy-quinolin-4-yloxy)-2-methoxy-phenyl]-amide]
< 10 nM | 10 to 100 nM | COc1cc(Oc2ccnc3cc(OC)c(OC)cc23)ccc1NC(=O)c1cn(C(C)C)c(=O)n(-c2ccc(F)cc2)c1=O [Example 145, 1-Isopropyl-3-(4-fluoro-phenyl)-2,4-dioxo-1,2,3,4-tetrahydro-pyrimidine-5-carboxylic acid [4-(6,7-dimethoxy-quinolin-4-yloxy)-2-methoxy-phenyl]-amide]
< 10 nM | < 10 nM | COc1cc2nccc(Oc3ccc(NC(=O)c4cn(C)c(=O)n(-c5ccc(F)cc5)c4=O)c(F)c3F)c2cc1OC [Example 146, 1-Methyl-3-(4-fluorophenyl)-2,4-dioxo-1,2,3,4-tetrahydro-pyrimidine-5-carboxylic acid [4-(6,7-dimethoxy-quinolin-4-yloxy)-2,3-difluoro-phenyl]-amide]
< 10 nM | < 10 nM | CCn1cc(C(=O)Nc2ccc(Oc3ccnc4cc(OC)c(OC)cc34)c(F)c2F)c(=O)n(-c2ccc(F)cc2)c1=O [Example 147, 1-Ethyl-3-(4-fluoro-phenyl)-2,4-dioxo-1,2,3,4-tetrahydro-pyrimidine-5-carboxylic acid [4-(6,7-dimethoxy-quinolin-4-yloxy)-2,3-difluoro-phenyl]-amide]
< 10 nM | < 10 nM | COc1cc2nccc(Oc3ccc(NC(=O)c4c[nH]c(=O)n(-c5ccc(F)cc5)c4=O)cc3C)c2cc1OC [Example 149, 3-(4-Fluoro-phenyl)-2,4-dioxo-1,2,3,4-tetrahydro-pyrimidine-5-carboxylic acid [4-(6,7-dimethoxy-quinolin-4-yloxy)-3-methyl-phenyl]-amide]
< 10 nM | 10 to 100 nM | COc1cc2nccc(Oc3ccc(NC(=O)c4c[nH]c(=O)n(-c5ccc(F)cc5)c4=O)cc3OC)c2cc1OC [Example 150, 3-(4-Fluoro-phenyl)-2,4-dioxo-1,2,3,4-tetrahydro-pyrimidine-5-carboxylic acid [4-(6,7-dimethoxy-quinolin-4-yloxy)-3-methoxy-phenyl]-amide]
< 10 nM | 10 to 100 nM | CCn1cc(C(=O)Nc2ccc(Oc3ccnc4cc(OC)c(OC)cc34)c(OC)c2)c(=O)n(-c2ccc(F)cc2)c1=O [Example 151, 1-Ethyl-3-(4-fluoro-phenyl)-2,4-dioxo-1,2,3,4-tetrahydro-pyrimidine-5-carboxylic acid [4-(6,7-dimethoxy-quinolin-4-yloxy)-3-methoxy-phenyl]-amide]
< 10 nM | 10 to 100 nM | CCn1cc(C(=O)Nc2ccc(Oc3ccnc4cc(OC)c(OC)cc34)c(C(F)(F)F)c2)c(=O)n(-c2ccc(F)cc2)c1=O [Example 159, 1-Ethyl-3-(4-fluoro-phenyl)-2,4-dioxo-1,2,3,4-tetrahydro-pyrimidine-5-carboxylic acid [4-(6,7-dimethoxy-quinolin-4-yloxy)-3-trifluoromethyl-phenyl]-amide]
< 10 nM | < 10 nM | CCn1nc(C(=O)Nc2ccc(Oc3ccnc4cc(OC)ccc34)c(F)c2)c(=O)n(-c2ccc(F)cc2)c1=O [Example 171, 2-Ethyl-4-(4-fluoro-phenyl)-3,5-dioxo-2,3,4,5-tetrahydro-1,2,4-triazine-6-carboxylic acid [3-fluoro-4-(7-methoxy-quinolin-4-yloxy)-phenyl]-amide]
